Assays:
[1] = Solubility studies in water and isopropanol (GC/FID); format: physicochemical; details: mg 9-decenoic acid/g solvent
Description: For the antimicrobial agents of Formulae I-III, the solubility in an aqueous and an alcohol environment was studied. Solubility studies were carried out with the sodium (Na) and potassium (K) salts of 9-decenoic acid in water and isopropanol (IPA). Six samples were analyzed. The samples were as follows: Na salt in water, Na salt in IPA, K salt in water, K salt in IPA, 9-decenoic acid (protonated) in water, 9-decenoic acid (protonated) in IPA. For the protonated form of the acids, the samples were acidified and diluted in IPA and subjected to analysis by gas chromatography/flame ionization detector (GC/FID). The same procedure was followed for the Na and K salts in IPA. For the Na and K salts in water, the samples were acidified and then extracted with petroleum ether. The petroleum ether was then evaporated, and the samples were reconstituted in IPA, acidified and subjected to analysis by GC/FID. Concentrations were calculated by comparing the peak area of the sample to a calibration table of 9-decenoic acid. The calibration curve was linear from 1 mg/g to 500 mg/g. Results are reported in mg/g (mg 9-decenoic acid/g solvent).

[2] = system: Bacillus cereus ATCC 14579; assay: Growth inhibition in MRS medium (OD600); format: cell-based; details: n = 2
Description: (§1) Efficacy of potassium salts of 9-DA were determined through incubation of the following organisms in the presence of varying concentrations of the potassium salt: Serratia marcescens ATCC 990, Pseudomonas straminea ATCC 33636, Bacillus subtilis ATCC 6051, Bacillus licheniformis ATCC 14580, Bacillus cereus ATCC 14579, Pediococcus acidilactici ATCC 8042, and Lactobacillus casei ATCC 334.
(§2) Stock cultures of each organism were transferred into MRS liquid medium. MRS medium (Difco 288130) was purchased from Becton, Dickinson and Company, Sparks, Md.
(§3) The efficacy of different levels of potassium salts of 9-DA (K-9-DA) was tested depending on the organism to inhibit the growth of various microorganisms indicated above.
(§4) The selected organisms were incubated overnight in 5 ml of MRS medium at 35° C. and 250 rpm. MRS media with K-9-DA were prepared, along with a control of straight media (no antimicrobial added). The concentrated antimicrobial agents were diluted with the appropriate media required for the respective microorganisms, to reach the required concentrations for the studies as indicated below. The antimicrobial agents were added by weight/volume percent on an ‘as 9-DA’ basis to the media. The purity of the antimicrobial agent (99% for K-9-DA) was taken into account. The pH of the medium was not adjusted. The target for initial cell density was 10^5 to 10^6 cfu/ml. According to the McFarland standard, 0.01 OD600 is equivalent to approximately 10^8 cfu/ml. To achieve the proper dilution, 30 μl of overnight culture diluted to 0.01 OD600 was added to the 3 ml of media in each tube. The tubes were incubated at 35° C. Treatments were all done in duplicate. All strains were shaken at 250 rpm, with the exception of Lactobacillus (because it is anaerobic). OD600 readings were taken at 0, 4, 17, 23 and 47 hours.
(§5) “Percent reduction in comparison with control” was defined as (1−abs. of treatment/abs. of control)×100.

[3] = system: Bacillus licheniformis ATCC 14580; assay: Growth inhibition in MRS medium (OD600); format: cell-based; details: n = 2
Description: as §1, §2, §3, §4, §5

[4] = system: Bacillus subtilis ATCC 6051; assay: Growth inhibition in MRS medium (OD600); format: cell-based; details: n = 2
Description: as §1, §2, §3, §4, §5

[5] = system: Lactobacillus casei ATCC 334; assay: Growth inhibition in MRS medium (OD600); format: cell-based; details: n = 2
Description: as §1, §2, §3, §4, §5

[6] = system: Pediococcus acidilactici ATCC 8042; assay: Growth inhibition in MRS medium (OD600); format: cell-based; details: n = 2
Description: as §1, §2, §3, §4, §5

[7] = system: Pseudomonas straminea ATCC 33636; assay: Growth inhibition in MRS medium (OD600); format: cell-based; details: n = 2
Description: as §1, §2, §3, §4, §5

[8] = system: Serratia marcescens ATCC 990; assay: Growth inhibition in MRS medium (OD600); format: cell-based; details: n = 2
Description: as §1, §2, §3, §4, §5

[9] = system: organisms of Table 14 with the exception of Serratia marcescens, Bacillus licheniformis, and Lactobacillus casei; assay: Growth inhibition in MRS medium (OD600), organisms of Table 14 except Serratia marcescens, Bacillus licheniformis, Lactobacillus casei; format: cell-based; details: all concentrations tested
Description: as §1, §2, §3
The selected organisms were incubated overnight in 5 ml of MRS medium at 35° C. and 250 rpm. MRS media with K-9-DA were prepared, along with a control of straight media (no antimicrobial added). The concentrated antimicrobial agents were diluted with the appropriate media required for the respective microorganisms, to reach the required concentrations for the studies as indicated below. The antimicrobial agents were added by weight/volume percent on an ‘as 9-DA’ basis to the media. The purity of the antimicrobial agent (99% for K-9-DA) was taken into account. The pH of the medium was not adjusted. […] OD600 readings were taken at 0, 4, 17, 23 and 47 hours. […]

[10] = system: Bacillus cereus ATCC 14579; assay: Growth inhibition in MRS medium at various pH levels (OD600); format: cell-based; details: 0.1% w/v (as 9DA)
Description: (§6) Efficacy of potassium salts of 9-DA was tested at various pH levels against the following: Serratia marcescens ATCC 990, and Bacillus cereus ATCC 14579.
as §2
(§7) The efficacy of potassium salts of 9-DA (K-9-DA) was tested at different concentrations and pH levels, including 6.75 (unadjusted), 7.5, and 8.5.
(§8) The selected organisms were incubated overnight in 5 ml of MRS medium at 35° C. and 250 rpm. MRS media with K-9-DA were prepared, along with a control of straight media (no antimicrobial added). The antimicrobial agents were added by weight/volume percent to the media. The purity of the composition, 99% for K-9-DA, was taken into account. The pH adjustments to 7.5 and 8.5 were done with 50% potassium hydroxide. Filter sterilization was used instead of autoclaving to prevent adverse chemical reactions at higher pH and temperature. The target for initial cell density was 10^5 to 10^6 cfu/ml. According to the McFarland standard, 0.01 OD600 is equivalent to approximately 10^8 cfu/ml. To achieve the proper dilution, 30 μl of overnight culture diluted to 0.01 OD600 was added to the 3 ml of media in each tube. The tubes were incubated at 35° C. with the exception of Pseudomonas strains which were incubated at 30° C. Treatments were all done in duplicate. All strains were shaken at 250 rpm. OD600 readings were taken at 0, 19, 25.5, 42.5 and 49 hours.
(§9) “Percent reduction in growth vs. control” was defined as (1−abs. of treatment/abs. of control)×100.

[11] = system: Serratia marcescens ATCC 990; assay: as above; format: cell-based; details: 0.1% w/v (as 9DA)
Description: as §6, §2, §7, §8, §9

Pseudomonas straminea = assay: as above; format: cell-based; details: 0.075% w/v (as 9DA)
[12] = system: all organisms tested in Tables 15-17 with the exception of Serratia marcescens; assay: Growth inhibition in MRS medium at various pH levels, organisms of Tables 15-17 except Serratia marcescens; format: cell-based
Description: as §6, §2, §7
as §8, with “The tubes were incubated at 35° C. with the exception of Pseudomonas strains which were incubated at 30° C. Treatments were all done in duplicate. All strains were shaken at 250 rpm.” left out, “hours. […]” for “hours.”

For `C=CCCCCCCCC(=O)O.[K]` [Potassium-9 Decenoic Acid], the “Solubility, Concentration” value ([1]; in isopropanol) was 10 mg/g, the “Solubility, Concentration” value ([1]; in water) was 240 mg/g and the “% reduction in growth vs. control” value ([2]; 0.075% w/v 9DA from K9DA) was 98.4%. The “Abs at 600 nm” value ([2]; 0.075% w/v 9DA from K9DA) was 0.093, the “% reduction in growth vs. control” value ([2]; 0.1% w/v 9DA from K9DA) was 96.2% and the “Abs at 600 nm” value ([2]; 0.1% w/v 9DA from K9DA) was 0.216. For the same compound, the “% reduction in growth vs. control” value ([3]; 0.075% w/v 9DA from K9DA) was 88.6%, the “Abs at 600 nm” value ([3]; 0.075% w/v 9DA from K9DA) was 0.300 and the “% reduction in growth vs. control” value ([3]; 0.1% w/v 9DA from K9DA) was 99.1%. The “Abs at 600 nm” value ([3]; 0.1% w/v 9DA from K9DA) was 0.023, the “% reduction in growth vs. control” value ([4]; 0.05% w/v 9DA from K9DA) was 97.3% and the “Abs at 600 nm” value ([4]; 0.05% w/v 9DA from K9DA) was 0.157. For the same compound, the “% reduction in growth vs. control” value ([4]; 0.075% w/v 9DA from K9DA) was 98.4%, the “Abs at 600 nm” value ([4]; 0.075% w/v 9DA from K9DA) was 0.094 and the “% reduction in growth vs. control” value ([5]; 0.05% w/v 9DA from K9DA) was 93.3%. The “Abs at 600 nm” value ([5]; 0.05% w/v 9DA from K9DA) was 0.461, the “% reduction in growth vs. control” value ([5]; 0.075% w/v 9DA from K9DA) was 96.9% and the “Abs at 600 nm” value ([5]; 0.075% w/v 9DA from K9DA) was 0.211. The “% reduction in growth vs. control” value ([6]; 0.025% w/v 9DA from K9DA) was 100.0%, the “Abs at 600 nm” value ([6]; 0.025% w/v 9DA from K9DA) was −0.038 and the “% reduction in growth vs. control” value ([6]; 0.05% w/v 9DA from K9DA) was 96.1%. The “Abs at 600 nm” value ([6]; 0.05% w/v 9DA from K9DA) was 0.224, the “% reduction in growth vs. control” value ([7]; 0.05% w/v 9DA from K9DA) was 96.9% and the “Abs at 600 nm” value ([7]; 0.05% w/v 9DA from K9DA) was 0.190. The “% reduction in growth vs. control” value ([7]; 0.075% w/v 9DA from K9DA) was 97.3%, the “Abs at 600 nm” value ([7]; 0.075% w/v 9DA from K9DA) was 0.165 and the “% reduction in growth vs. control” value ([8]; 0.075% w/v 9DA from K9DA) was 97.7%. For the same compound, the “Abs at 600 nm” value ([8]; 0.075% w/v 9DA from K9DA) was 0.181, the “% reduction in growth vs. control” value ([8]; 0.1% w/v 9DA from K9DA) was 94.6% and the “Abs at 600 nm” value ([8]; 0.1% w/v 9DA from K9DA) was 0.412. For the same compound, the “reduction in growth when compared to controls” value [9] was ≥ 96%, the “% reduction in growth vs. control” value ([10]; Non-pH adjusted (6.75)) was 96.5% and the “% reduction in growth vs. control” value ([10]; pH 7.5) was 96.2%. For the same compound, the “% reduction in growth vs. control” value ([10]; pH 8.5) was 93.9%, the “% reduction in growth vs. control” value ([11]; Non-pH adjusted (6.75)) was 98.5% and the “% reduction in growth vs. control” value ([11]; pH 7.5) was 18.5%. The “% reduction in growth vs. control” value ([11]; pH 8.5) was 37.4%, the “% reduction in growth vs. control” value (Pseudomonas straminea; Non-pH adjusted (6.75)) was 98.6% and the “% reduction in growth vs. control” value (Pseudomonas straminea; pH 7.5) was 96.2%. For the same compound, the “% reduction in growth vs. control” value (Pseudomonas straminea; pH 8.5) was 93.9%, the reduction in growth ([12]; pH 7.5, concentrations of Tables 15-17) was 96% and the reduction in growth ([12]; pH 8.5, concentrations of Tables 15-17) was 94%.

Reference: patent US20080033026A1, “Antimicrobial compositions, methods and systems” (priority 2006, published 2008)
